This experiment deals with T1, LRRK2 (endogenous, HiBit tagged) (Homo sapiens, UniProt Q5S007).
T1 construct: endogenous in cells; host or cells: HEK293 cells with HiBit knock-in at the endogenous LRRK2 locus, stably expressing firefly luciferase
Put plainly: Endogenous LRRK2 degradation assay, endogenous gene C-terminally HiBit-tagged in HEK293 cells (Nano-Glo Dual Luciferase). It counts as cell-based. A digest of the protocol:
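LRRK2-HiBit quantified via Nano-Glo Dual Luciferase in HEK293 knock-in cells co-expressing firefly luciferase, after 24 h exposure to compound (1 μM final top, 1:3, 11 points). Values normalised to DMSO median per plate and curve-fitted; Alamar Blue viability run alongside.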

Setting [1] is: endogenous HiBit-tagged LRRK2 in HEK293 cells, 24 hours treatment, read-out: **Endogenous WT Dmax (%).
[2] abbreviates: endogenous HiBit-tagged LRRK2 in HEK293 cells, 24 hours treatment, read-out: *Endogenous WT DC50.
[3] abbreviates: endogenous HiBit-tagged LRRK2 in HEK293 cells, 24 hours treatment, read-out: Endogenous WT DC50.
Setting [4] is: endogenous HiBit-tagged LRRK2 in HEK293 cells, 24 hours treatment, read-out: Endogenous WT Dmax.
Setting [5] is: endogenous HiBit-tagged LRRK2, HEK293 cells, 24 hours, read-out: **Endogenous WT Dmax (%).
Setting [6] is: endogenous HiBit-tagged LRRK2, HEK293 cells, 24 hours, read-out: *Endogenous WT DC50.

Where two headings read alike, the source gives them in different places.

T1 sequence (Q5S007 whole entry): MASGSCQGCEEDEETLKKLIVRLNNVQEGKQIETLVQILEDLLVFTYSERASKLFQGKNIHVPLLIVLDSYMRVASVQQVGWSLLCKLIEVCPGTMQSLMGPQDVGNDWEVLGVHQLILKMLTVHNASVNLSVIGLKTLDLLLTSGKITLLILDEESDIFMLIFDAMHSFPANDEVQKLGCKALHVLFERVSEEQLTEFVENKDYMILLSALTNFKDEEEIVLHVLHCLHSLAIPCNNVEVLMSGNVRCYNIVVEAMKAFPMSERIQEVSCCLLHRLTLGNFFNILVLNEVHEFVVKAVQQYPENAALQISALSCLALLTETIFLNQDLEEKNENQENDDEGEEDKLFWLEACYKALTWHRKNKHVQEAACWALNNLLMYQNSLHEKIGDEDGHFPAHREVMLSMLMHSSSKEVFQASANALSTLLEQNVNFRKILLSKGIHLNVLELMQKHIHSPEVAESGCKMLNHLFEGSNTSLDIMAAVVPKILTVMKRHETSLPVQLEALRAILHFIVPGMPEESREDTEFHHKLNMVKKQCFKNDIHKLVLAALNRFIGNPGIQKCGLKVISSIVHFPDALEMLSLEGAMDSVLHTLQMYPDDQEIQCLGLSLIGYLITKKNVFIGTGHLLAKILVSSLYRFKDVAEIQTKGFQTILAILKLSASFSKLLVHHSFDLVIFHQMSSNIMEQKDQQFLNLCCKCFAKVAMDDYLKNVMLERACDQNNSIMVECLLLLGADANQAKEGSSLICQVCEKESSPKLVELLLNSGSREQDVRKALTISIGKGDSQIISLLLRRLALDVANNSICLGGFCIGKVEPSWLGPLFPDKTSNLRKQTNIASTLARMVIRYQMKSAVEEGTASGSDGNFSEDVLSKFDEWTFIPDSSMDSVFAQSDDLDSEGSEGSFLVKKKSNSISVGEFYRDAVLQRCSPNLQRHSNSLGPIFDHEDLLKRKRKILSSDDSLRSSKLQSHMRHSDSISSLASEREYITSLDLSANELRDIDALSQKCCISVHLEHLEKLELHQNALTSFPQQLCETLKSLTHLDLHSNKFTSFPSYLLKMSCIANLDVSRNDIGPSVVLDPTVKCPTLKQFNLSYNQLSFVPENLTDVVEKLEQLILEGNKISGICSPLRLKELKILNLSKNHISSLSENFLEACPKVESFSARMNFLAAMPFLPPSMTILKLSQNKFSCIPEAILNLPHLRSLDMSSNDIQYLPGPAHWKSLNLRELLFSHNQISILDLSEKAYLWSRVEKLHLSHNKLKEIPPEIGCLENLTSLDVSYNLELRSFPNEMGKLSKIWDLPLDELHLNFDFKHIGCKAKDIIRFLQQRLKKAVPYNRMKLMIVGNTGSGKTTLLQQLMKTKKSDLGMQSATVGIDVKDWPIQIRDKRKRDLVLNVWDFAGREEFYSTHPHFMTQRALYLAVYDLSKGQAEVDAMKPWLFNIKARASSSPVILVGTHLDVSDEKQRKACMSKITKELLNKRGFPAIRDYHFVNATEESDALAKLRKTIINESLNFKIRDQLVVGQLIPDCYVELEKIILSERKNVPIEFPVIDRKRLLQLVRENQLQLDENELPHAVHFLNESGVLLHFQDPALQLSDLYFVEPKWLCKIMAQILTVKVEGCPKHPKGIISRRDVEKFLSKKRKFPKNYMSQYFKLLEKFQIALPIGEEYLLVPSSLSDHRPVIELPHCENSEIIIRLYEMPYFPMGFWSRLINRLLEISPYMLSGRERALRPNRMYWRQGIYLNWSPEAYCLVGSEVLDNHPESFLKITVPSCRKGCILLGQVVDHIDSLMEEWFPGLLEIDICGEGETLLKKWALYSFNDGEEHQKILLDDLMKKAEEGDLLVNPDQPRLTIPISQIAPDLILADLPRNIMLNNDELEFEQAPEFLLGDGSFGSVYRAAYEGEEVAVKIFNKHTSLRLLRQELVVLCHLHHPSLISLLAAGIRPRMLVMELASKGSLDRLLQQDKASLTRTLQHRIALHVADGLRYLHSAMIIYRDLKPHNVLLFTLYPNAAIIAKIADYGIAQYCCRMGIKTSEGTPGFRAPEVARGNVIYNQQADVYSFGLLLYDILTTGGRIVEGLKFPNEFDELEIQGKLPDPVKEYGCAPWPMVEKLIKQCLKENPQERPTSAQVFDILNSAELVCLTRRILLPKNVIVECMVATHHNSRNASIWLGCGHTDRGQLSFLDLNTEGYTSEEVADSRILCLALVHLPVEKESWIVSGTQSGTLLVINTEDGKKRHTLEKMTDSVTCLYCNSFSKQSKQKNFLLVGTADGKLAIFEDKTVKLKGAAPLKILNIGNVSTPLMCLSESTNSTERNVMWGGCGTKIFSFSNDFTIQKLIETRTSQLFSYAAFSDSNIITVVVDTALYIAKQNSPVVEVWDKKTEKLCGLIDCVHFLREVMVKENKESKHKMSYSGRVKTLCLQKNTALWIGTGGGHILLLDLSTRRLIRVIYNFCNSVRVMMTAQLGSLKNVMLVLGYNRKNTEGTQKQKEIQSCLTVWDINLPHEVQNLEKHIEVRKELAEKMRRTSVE

With `COc1c(N2CC[C@@H](CN3CCN(CC4CCN(c5cc(-c6n[nH]c7ccc(OC8(C)CC8)cc67)ncn5)CC4)CC3)C2)ccc2c1CN(C1CCC(=O)NC1=O)C2=O` (stereo partly drawn) [Compound 328, 3-{4-methoxy-5-[(3S)-3-({4-[(1-{6-[5-(1-methylcyclopropoxy)-1H-indazol-3-yl]pyrimidin-4-yl}piperidin-4-yl)methyl]piperazin-1-yl}methyl)pyrrolidin-1-yl]-1-oxo-2,3-dihydro-1H-isoindol-2-yl}piperidine-2,6-dione], under setting [1], the Dmax was in the range of 50 to 70%. In addition, the DC50 under setting [2] was less than 10 nM.

With `C[C@H]1CN(c2cc(-c3[nH]nc4ccc(OC5(C)CC5)cc34)ncn2)CCN1CCC1CCN(C(=O)C2CCN(c3ccc4c(c3)C(=O)N(C3CCC(=O)NC3=O)C4=O)CC2)CC1` (stereo partly drawn) [Compound 57, 2-(2,6-dioxopiperidin-3-yl)-5-[4-(4-{2-[(2S)-2-methyl-4-{6-[5-(1-methylcyclopropoxy)-2H-indazol-3-yl]pyrimidin-4-yl}piperazin-1-yl]ethyl}piperidine-1-carbonyl)piperidin-1-yl]-2,3-dihydro-1H-isoindole-1,3-dione], where the note is “endogenous HiBit-tagged LRRK2 in HEK293 cells, 24 hours, read-out: **Endogenous WT Dmax (%)”, the Dmax is not below 70%. The DC50 (endogenous HiBit-tagged LRRK2 in HEK293 cells, 24 hours, read-out: *Endogenous WT DC50) is less than 10 nM.

`CC1(Oc2ccc3[nH]nc(-c4ccnc(N5CCN(C[C@H]6CC[C@H](OC7CCN(c8ccc9c(c8F)CN(C8CCC(=O)NC8=O)C9=O)CC7)CC6)CC5)c4)c3c2)CC1` (stereo partly drawn) [Compound 358, 3-[4-fluoro-1-oxo-5-(4-{[(1r,4r)-4-[(4-{4-[5-(1-methylcyclopropoxy)-1H-indazol-3-yl]pyridin-2-yl}piperazin-1-yl)methyl]cyclohexyl]oxy}piperidin-1-yl)-2,3-dihydro-1H-isoindol-2-yl]piperidine-2,6-dione]: under setting [3], the DC50 was less than 10 nM. Besides, the Dmax under setting [4] lay within 50 to 70%.

With `CC1(Oc2ccc3[nH]nc(-c4cc(N5CCN(C[C@H]6CC[C@H](CN7CCN(c8ccc9c(c8F)CN(C8CCC(=O)NC8=O)C9=O)CC7)CC6)CC5)ncn4)c3c2)CC1` (stereo partly drawn) [Compound 202, 3-[4-fluoro-5-[[4-[[4-[4-[6-[5-(1-methylcyclopropoxy)-1H-indazol-3-yl]pyrimidin-4-yl]piperazin-1-yl]methyl]cyclohexyl]methyl]piperazin-1-yl]-1-oxo-isoindolin-2-yl]piperidine-2,6-dione], the Dmax under setting [5] was not below 70%. For the same compound, the DC50 under setting [6] was less than 10 nM.

For `COc1c(N2CCC(O[C@H]3CC[C@H](CN4CCN(c5cc(-c6n[nH]c7cnc(OC8(C)CC8)cc67)ncn5)CC4)CC3)CC2)ccc2c1CN(C1CCC(=O)NC1=O)C2=O` (stereo partly drawn) [Compound 273, 3-[4-methoxy-1-oxo-5-(4-{[(1r,4r)-4-[(4-{6-[5-(1-methylcyclopropoxy)-1H-pyrazolo[3,4-c]pyridin-3-yl]pyrimidin-4-yl}piperazin-1-yl)methyl]cyclohexyl]oxy}piperidin-1-yl)-2,3-dihydro-1H-isoindol-2-yl]piperidine-2,6-dione], the Dmax under setting [1] was less than 50%. The DC50 under setting [2] was less than 10 nM.

For `COc1c(N2CC3(CCN(CCN4CCN(c5cc(-c6n[nH]c7ccc(OC8(C)CC8)cc67)ncn5)CC4)CC3(F)F)C2)ccc2c1CN(C1CCC(=O)NC1=O)C2=O` (stereo not drawn) [Compound 363, 3-(5-{5,5-difluoro-7-[2-(4-{6-[5-(1-methylcyclopropoxy)-1H-indazol-3-yl]pyrimidin-4-yl}piperazin-1-yl)ethyl]-2,7-diazaspiro[3.5]nonan-2-yl}-4-methoxy-1-oxo-2,3-dihydro-1H-isoindol-2-yl)piperidine-2,6-dione], the DC50 under setting [3] was less than 10 nM. In addition, the maximal degradation (Dmax) under setting [4] was in the range of 50 to 70%.

With `C[C@H]1CN(CC2(F)CCN(CC3CCN(c4cc(-c5n[nH]c6ccc(OC7(C)CC7)cc56)ncn4)CC3)CC2)CCN1c1ccc2c(c1F)CN(C1CCC(=O)NC1=O)C2=O` (stereo partly drawn) [Compound 355, 3-{4-fluoro-5-[(2S)-4-({4-fluoro-1-[(1-{6-[5-(1-methylcyclopropoxy)-1H-indazol-3-yl]pyrimidin-4-yl}piperidin-4-yl)methyl]piperidin-4-yl}methyl)-2-methylpiperazin-1-yl]-1-oxo-2,3-dihydro-1H-isoindol-2-yl}piperidine-2,6-dione], the Dmax under setting [1] was 50 to 70%. The DC50 under setting [2] is less than 10 nM.

For `CC1(Oc2ccc3[nH]nc(-c4cc(N5CCN(C[C@H]6CC[C@H](OC7CCN(c8c(F)cc9c(c8F)CN(C8CCC(=O)NC8=O)C9=O)CC7)CC6)CC5)ncn4)c3c2)CC1` (stereo partly drawn) [Compound 286, 3-[4,6-difluoro-1-oxo-5-(4-{[(1r,4r)-4-[(4-{6-[5-(1-methylcyclopropoxy)-1H-indazol-3-yl]pyrimidin-4-yl}piperazin-1-yl)methyl]cyclohexyl]oxy}piperidin-1-yl)-2,3-dihydro-1H-isoindol-2-yl]piperidine-2,6-dione], the Dmax under setting [1] is not below 70%. Also, the DC50 under setting [2] is 10 to 50 nM.

For `CC1(Oc2cc3c(-c4cc(N5CCC(CN6CCN(CC7CCN(c8ccc9c(c8F)CN(C8CCC(=O)NC8=O)C9=O)CC7)CC6)CC5)ncn4)n[nH]c3cc2F)CC1` (stereo not drawn) [Compound 186, 3-[4-fluoro-5-[4-[[4-[[1-[6-[6-fluoro-5-(1-methylcyclopropoxy)-1H-indazol-3-yl]pyrimidin-4-yl]-4-piperidyl]methyl]piperazin-1-yl]methyl]-1-piperidyl]-1-oxo-isoindolin-2-yl]piperidine-2,6-dione], the Dmax under setting [5] is not below 70%. Moreover, the DC50 under setting [6] is less than 10 nM.

Consider `CC1(Oc2ccc3[nH]nc(-c4cc(N5CCC(C(C)(C)N6CCN(CC7CCN(c8ccc9c(c8F)CN(C8CCC(=O)NC8=O)C9=O)CC7)CC6)CC5)ncn4)c3c2)CC1` (stereo not drawn) [Compound 320, 3-{4-fluoro-5-[4-({4-[2-(1-{6-[5-(1-methylcyclopropoxy)-1H-indazol-3-yl]pyrimidin-4-yl}piperidin-4-yl)propan-2-yl]piperazin-1-yl}methyl)piperidin-1-yl]-1-oxo-2,3-dihydro-1H-isoindol-2-yl}piperidine-2,6-dione], for which the Dmax under setting [1] is 50 to 70%. For the same compound, under setting [2], the DC50 is less than 10 nM.

With `CC1(Oc2ccc3[nH]nc(-c4cc(N5CCC(CN6CCN(CC7CCN(c8ccc9c(c8F)CN(C8CCC(=O)NC8=O)C9=O)CC7)CC6(C)C)CC5)ncn4)c3c2)CC1` (stereo not drawn) [Compound 224, 3-[5-[4-[[3,3-dimethyl-4-[[1-[6-[5-(1-methylcyclopropoxy)-1H-indazol-3-yl]pyrimidin-4-yl]-4-piperidyl]methyl]piperazin-1-yl]methyl]-1-piperidyl]-4-fluoro-1-oxo-isoindolin-2-yl]piperidine-2,6-dione], the DC50 under setting [3] is less than 10 nM. Also, the Dmax under setting [4] fell in the range of 50 to 70%.

With `CC1(Oc2cc3c(-c4cc(N5CCC(CN6CCN(CC7CCN(c8ccc9c(c8F)CN(C8CCC(=O)NC8=O)C9=O)CC7)C(C)(C)C6)CC5)ncn4)n[nH]c3cc2F)CC1` (stereo not drawn) [Compound 275, 3-{4-fluoro-5-[4-({4-[(1-{6-[6-fluoro-5-(1-methylcyclopropoxy)-1H-indazol-3-yl]pyrimidin-4-yl}piperidin-4-yl)methyl]-2,2-dimethylpiperazin-1-yl}methyl)piperidin-1-yl]-1-oxo-2,3-dihydro-1H-isoindol-2-yl}piperidine-2,6-dione], under setting [1], the Dmax lay in the range of 50 to 70%. Under setting [2], the DC50 was less than 10 nM.

Broadly, the Dmax is the greatest extent of degradation seen. Usually DC50 stands for the concentration at which degradation of the target reaches its halfway point.

These data come from patent publication US12559506B2, “Indazole based compounds and associated methods of use” (Arvinas Operations, Inc., priority 2021, dated 2026).
